Measurements: patent EP0358766A1, “METHOD OF STERILIZING PLANT ANTHERS” (VSESOJUZNY NAUCHNO-ISSLEDOVATELSKY INST. SELSKOKHOZYAISTV. …, priority 1988, dated 1989)
Like-named read-outs stand apart in the source and are kept apart here.

Legend:
[1] = tested on: Sommerweizens Sorte Moskowskaya 35; test: Field test of gametocidal activity, spring wheat Moskowskaya 35; type: in vivo, Weizen; conditions: for Prozentsatz des Ansetzens von Samen bei freier Bestäubung: control = 100
Source text: (§1) Die gametozide Aktivität der erfindungsgemäßen Sterilisationsmittel war in Feldversuchen in verschiedenen bodenklimatischen Zonen mit Teilstücken von 10 m^2 Größe in dreibis viermaliger Wiederholung festgestellt. Jedes Sterilisationsmittel wurde mindenstens 5 Jahre lang geprüft.
(§2) Die Entwicklung der Perioden der Organogenese wird zytologisch überwacht. Die Behandlung von Pflanzen mit dem Sterilisationsmittel erfolgt am Anfang der fünften Periode der Organogenese nach Kupermann.
(§3) Mit dem Ährenschieben verwirklicht man die Isolierung von Hauptähren und anderen Stockwerken in Pergametbeuteln. Bei Weizen und Tritikale werden Einzelisolatoren benutzt. Bei Roggen schließt man je 1 Ähre von […] verschiedenen nebeneinander befindlichen Pflanzen unter einen gemeinsamen Isolator ein. Bei Hirse wird jede Rispe getrennt isoliert. Der Sterilitätsprozentsatz (X) für Weizen, Roggen, Tritikale und Hirse wird nach der Formel [formula] ermittelt.
(§4) Die Kornzahl in nicht isolierten Ähren von Kontrollpflanzen wird bedingt für 100 % Ansetzen bei freier Bestäubung angenommen.
(§5) Um zuverlässige Angaben zu erhalten, verwendet man 20 bis 25 Isolatoren je Wiederholung für Weizen und Tritikale, 10 bis 15 Isolatoren jeder Wiederholung für Roggen und Hirse.
Pflanzen des Sommerweizens Sorte Moskowskaya 35 werden in der V. Periode der Organogenese (nach Kupermann) mit einer l%igen wäßrigen Emulsion von 1,1,3-Tribrompropan, […], 1,1,2,3-Tetrabrompropan, 1,2,3-Tribrompropan, 1,2-Dibrompropan, 1,1,3-Tribrom-3-chlorpropan, 1,2-Dibrom-3-chlorpropan, 1,3-Dibrompropan, 1,1,1,3-Tetrabromheptan bzw. 1,1,3-Tribromheptan behandelt. Die Emulsion enthält als Emulgierungsmittel 0,5 Masse% C12-C14-Kalzium- alkylbenzolsulfonat und als Adjuvans 0,01 Masse% Dimethylformamid. Der Verbrauch an Präparat beträgt 6 kg/ha bei 600 1 Wasserdurchsatz. Als Kontrolle dienen Pflanzen, behandelt mit dem Verdünner ohne Sterilisationsmittel.
Die Prüfergebnisse sind in der Tabelle 2 angegeben. Die gleichen Ergebnisse sind bei der Behandlung des Sommerweizens Sorte Moskowskaya 35 in der VI.Periode der Organogenese erhalten.

[2] = tested on: Winterweizens Sorte Mironowskaya 808; test: Field test of gametocidal activity (anther sterilisation), winter wheat Mironowskaya 808; type: in vivo, Weizen; conditions: for Prozentsatz des Ansetzens von Samen bei freier Bestäubung: control = 100; for pest or weed control at 1 %, 10000 g/ha: read-out: Prozentsatz der Sterilität %
Source text: as §1, §2, §3, §4, §5
Pflanzen des Winterweizens Sorte Mironowskaya 808 werden in der V.Periode der Organogenese durch Zerstäubung der 2%igen wäßrigen Emulsion von 1,1,3-Tribrompropan mit Hilfe einer Rückenspritze behandelt.
Als Emulgierungsmittel setzt man 0,5 Masse% C12-C14--Kalziumalkylbenzolsulphonat zu. Als Adjuvans enthält die Emulsion 0,01 Masse% Dimethylsulfoxid. Der Verbrauch an Präparat beträgt 20 kg/ha bei 1000 Liter Wasserdurchsatz. Als Kontrolle dienen Pflanzen, behandelt mit einem Verdünner ohne Sterilisationsmittel. Die Ergebnisse sind in der Tabelle 1 angegeben.
Der ProzeB wird analog zu dem in Beispiel 1 beschriebenen durchgeführt. Als Sterilisationsmittel verwendet man eine 2%ige waßrige Emulsion von 1,1,3-Tribrom-4-chlorbutan, 1,1,2,3-Tetrabrompropan. Die Prüfergebnisse sind in der Tabelle 1 angegeben.
Der Prozeß wird analog zu dem in Beispiel 1 beschriebenen durchgeführt, nur daß man 1%ige wäßrige Emulsion von 1,2,3-Tribrompropan, 1,2-Dibrompropan, 1,1,3-Tribrom-3--chlorpropan, 1,2-Dibrom-3-chlorpropan, 1,3-Dibrompropan, 1,1,1,3-Tetrabromheptan, 1,1,3-Tribromheptan, 1,2-Dibromheptan verwendet. Die Präparatdosis beträgt 10 kg ha. Die Prüfergebnisse sind in der Tabelle 1 angegeben. Die gleichen Ergebnisse sind bei der Behandlung des Weizens Sorte Mironowskaya 808 in der VI. Periode der Organogenese erhalten.

[3] = tested on: Hirse Sorte Mironovskoye 94; test: Field test of gametocidal activity, millet Mironovskoye 94; type: in vivo; conditions: for Kornzahl der Rispe bei freier Bestäubung / Kornzahl der Rispe im Isolator / Prozentsatz des Ansetzens von Samen bei freier Bestäubung / percent sterility at 6000 g/ha: Mironovskoye 94, period V, 1% aqueous emulsion, 6 kg/ha in 600 l water; for Prozentsatz des Ansetzens von Samen bei freier Bestäubung: control = 100; for percent sterility at 6000 g/ha / pest or weed control at 6000 g/ha: read-out: Prozentsatz der Sterilität
Source text: as §1, §2, §3, §4, §5
Pflanzen der Hirse Sorte Mironovskoye 94 werden in der V.Periode der Organogenese mit einer 1%igen wäßrigen Emulsion von 1,1,3-Tribrompropan, 1,2,3-Tribrompropan, 1,2-Dibrompropan, 1,2-Dibrom-3-chlorpropan, 1,3-Dibrompropan, 1,1,1,3-Tetrabromheptan, 1,1,3-Tribromheptan, 1,2-Dibromheptan behandelt. Die Emulsion enthält 0,5 Masse% C12-C14--Kalziumalkylbenzolaulfonat und 0,01 Masse% Dimethylsulfoxid als Adjuvans. Der Verbrauch an Präparat beträgt 6 kg/ha bei 600 1 Wasserdurchsatz. Die Prüfergebnisse sind in der Tabelle 15 angegeben. Die gleichen Ergebnisse sind bei der Behandlung der Hirse Sorte Mironovskoye 94 in der VI. Periode der Organogenese erhalten.

diploidem Roggen Chulpan = test: Field test of gametocidal activity, diploid rye Chulpan; type: in vivo; conditions: for Kornzahl der Ähre bei freier Bestäubung / Kornzahl der Ähre im Isolator / Prozentsatz des Ansetzens von Samen bei freier Bestäubung / percent sterility at 10000 g/ha: Chulpan, period V, 1% aqueous emulsion, 10 kg/ha; for Prozentsatz des Ansetzens von Samen bei freier Bestäubung: control = 100; for percent sterility at 10000 g/ha / pest or weed control at 10000 g/ha: read-out: Prozentsatz der Sterilität
Source text: as §1, §2, §3, §4, §5
Pflanzen von diploidem Roggen Chulpan werden in der V.Periode der Organogenese mit einer 1%igen wäßrigen Emulsion von 1,1,3-Tribrompropan, 1,1,3-Tribrom-4-chlorbutan, 1,1,2,3-Tetrabrompropan, 1,2,3-Tribrompropan, 1,2-Dibrompropan, 1,1,3-Tribrom-3-ohlorpropan, 1,2-Dibrom-3--chlorpropan, 1,3-Dibrompropan, 1,1,1,3-Tetrabromheptan, 1,1,3-Tribromheptan bzw. 1,2-Dibromheptan behandelt. Die Emulsion enthält 0,5 Masse% C12-C14-Kalziumalkylbenzolsul- fonat und 0,01 Masse% Dimethylsulfoxid. Der Verbrauch an Präparat beträgt 10 kg/ha. Die Prüfergebnisse sind in der Tabelle 11 angegeben. Die gleichen Ergebnisse sind bei der Behandlung von diploidem Roggen Chulpan in der VI. Periode der Organogenese erhalten.

[4] = tested on: diploidem Roggen Kharkovskaya 55; test: Field test of gametocidal activity, diploid rye Kharkovskaya 55; type: in vivo; conditions: for Kornzahl der Ähre bei freier Bestäubung / Kornzahl der Ähre im Isolator / Prozentsatz des Ansetzens von Samen bei freier Bestäubung / percent sterility at 6000 g/ha: Kharkovskaya 55, period V, 1% aqueous emulsion, 6 kg/ha in 600 l water; for Prozentsatz des Ansetzens von Samen bei freier Bestäubung: control = 100; for percent sterility at 6000 g/ha / pest or weed control at 6000 g/ha: read-out: Prozentsatz der Sterilität
Source text: as §1, §2, §3, §4, §5
Pflanzen von diploidem Roggen Kharkovskaya 55 werden in der V. Periode der Organogenese mit einer l%igen wäßrigen Emulsion von 1,1,3-Tribrompropan, 1,2,3-Tribrompropan, 1,2-Dibrompropan, 1,1,3-Tribrom-3-chlorpropan, 1,2--Dibrom-3-chlorpropan, 1,1,1,3-Tetrabromheptan, 1,1,3-Tribromheptan bzw. 1,2-Dibromheptan behandelt. Die Emulsion enthält 0,5 Masse% C12-C14-Kalziumalkylbenzolsulfonat und 0,01 Masse% Dimethylformamid als Adjuvans. Der Verbrauch an Präparat beträgt 6 kg/ha bei 600 1 Wasserdurchsatz. Die Prüfergebnisse sind in der Tabelle 13 angegeben. Die gleichen Ergebnisse sind bei der Behandlung von diploidem Roggen Kharkovskaya 55 in der VI. Periode der Organogenese erhalten.

[5] = Moskowskaya 35, period V, 1% aqueous emulsion, 6 kg/ha in 600 l water
[6] = Mironowskaya 808, period V of organogenesis, 1% aqueous emulsion, 10 kg/ha
[7] = read-out: Prozentsatz der Sterilität
[8] = Mironowskaya 808, period V of organogenesis, 2% aqueous emulsion, 20 kg/ha in 1000 l water

SMILES: CCCCC(Br)CC(Br)Br (centres unmarked) [Beispiel 10, 1,1,3-Tribromheptan]
- Kornzahl der Ähre bei freier Bestäubung [1, 5]: 36,2
- Kornzahl der Ähre im Isolator [1, 5]: 0,1
- Prozentsatz des Ansetzens von Samen bei freier Bestäubung [1, 5]: 94,7%
- percent sterility at 6000 g/ha ([1]; Moskowskaya 35, period V, 1% aqueous emulsion, 6 kg/ha in 600 l water, read-out: Prozentsatz der Sterilität): 99.8%
- Kornzahl der Ähre bei freier Bestäubung [2, 6]: 40,0
- Kornzahl der Ähre im Isolator [2, 6]: 0,6
- Prozentsatz des Ansetzens von Samen bei freier Bestäubung [2, 6]: 96,2%
- pest or weed control at 1 %, 10000 g/ha [2, 6]: 98.4%
- Kornzahl der Rispe bei freier Bestäubung [3]: 180,1
- Kornzahl der Rispe im Isolator [3]: 0,0
- Prozentsatz des Ansetzens von Samen bei freier Bestäubung [3]: 73,6%
- percent sterility at 6000 g/ha [3]: 100%
- Kornzahl der Ähre bei freier Bestäubung (diploidem Roggen Chulpan): 46,3
- Kornzahl der Ähre im Isolator (diploidem Roggen Chulpan): 0,3
- Prozentsatz des Ansetzens von Samen bei freier Bestäubung (diploidem Roggen Chulpan): 92,4%
- percent sterility at 10000 g/ha (diploidem Roggen Chulpan): 99.4%
- Kornzahl der Ähre bei freier Bestäubung [4]: 36,2
- Kornzahl der Ähre im Isolator [4]: 0,1
- Prozentsatz des Ansetzens von Samen bei freier Bestäubung [4]: 97,8%
- percent sterility at 6000 g/ha [4]: 99.8%

SMILES: CCCCC(Br)CC(Br)(Br)Br (centres unmarked) [Beispiel 9, 1,1,1,3-Tetrabromheptan]
- Kornzahl der Ähre bei freier Bestäubung [1, 5]: 35,8
- Kornzahl der Ähre im Isolator [1, 5]: 0,1
- Prozentsatz des Ansetzens von Samen bei freier Bestäubung [1, 5]: 93,7%
- pest or weed control at 6000 g/ha [1, 7]: 99.9%
- Kornzahl der Ähre bei freier Bestäubung [2, 6]: 31,4
- Kornzahl der Ähre im Isolator [2, 6]: 0,2
- Prozentsatz des Ansetzens von Samen bei freier Bestäubung [2, 6]: 75,5%
- pest or weed control at 1 %, 10000 g/ha [2]: 99.5%
- Kornzahl der Rispe bei freier Bestäubung [3]: 200,7
- Kornzahl der Rispe im Isolator [3]: 0,0
- Prozentsatz des Ansetzens von Samen bei freier Bestäubung [3]: 81,7%
- pest or weed control at 6000 g/ha [3]: 100%
- Kornzahl der Ähre bei freier Bestäubung (diploidem Roggen Chulpan): 48,9
- Kornzahl der Ähre im Isolator (diploidem Roggen Chulpan): 0,2
- Prozentsatz des Ansetzens von Samen bei freier Bestäubung (diploidem Roggen Chulpan): 97,6%
- pest or weed control at 10000 g/ha (diploidem Roggen Chulpan): 99.6%
- Kornzahl der Ähre bei freier Bestäubung [4]: 37,1
- Kornzahl der Ähre im Isolator [4]: 0,0
- Prozentsatz des Ansetzens von Samen bei freier Bestäubung [4]: 100,0%
- pest or weed control at 6000 g/ha [4]: 100%

SMILES: BrCCC(Br)Br [Beispiel 1, 1,1,3-Tribrompropan]
- Kornzahl der Ähre bei freier Bestäubung [1, 5]: 34,2
- Kornzahl der Ähre im Isolator [1, 5]: 0,7
- Prozentsatz des Ansetzens von Samen bei freier Bestäubung [1, 5]: 89,5%
- pest or weed control at 6000 g/ha [1, 7]: 99.9%
- Kornzahl der Ähre bei freier Bestäubung [2, 8]: 40,3
- Kornzahl der Ähre im Isolator [2, 8]: 0,9
- Prozentsatz des Ansetzens von Samen bei freier Bestäubung [2, 8]: 84,0%
- Kornzahl der Rispe bei freier Bestäubung [3]: 175,1
- Kornzahl der Rispe im Isolator [3]: 0,0
- Prozentsatz des Ansetzens von Samen bei freier Bestäubung [3]: 71,6%
- pest or weed control at 6000 g/ha [3]: 100%
- Kornzahl der Ähre bei freier Bestäubung (diploidem Roggen Chulpan): 46,5
- Kornzahl der Ähre im Isolator (diploidem Roggen Chulpan): 0,2
- Prozentsatz des Ansetzens von Samen bei freier Bestäubung (diploidem Roggen Chulpan): 92,8%
- pest or weed control at 10000 g/ha (diploidem Roggen Chulpan): 99.6%
- Kornzahl der Ähre bei freier Bestäubung [4]: 43,1
- Kornzahl der Ähre im Isolator [4]: 1,2
- Prozentsatz des Ansetzens von Samen bei freier Bestäubung [4]: 95,6%
- pest or weed control at 6000 g/ha [4]: 97.2%

SMILES: CCCCCC(Br)CBr (centres unmarked) [Beispiel 11, 1,2-Dibromheptan]
- Kornzahl der Ähre bei freier Bestäubung [2, 6]: 39,7
- Kornzahl der Ähre im Isolator [2, 6]: 0,0
- Prozentsatz des Ansetzens von Samen bei freier Bestäubung [2, 6]: 95,4%
- pest or weed control at 1 %, 10000 g/ha [2, 6]: 100%
- Kornzahl der Rispe bei freier Bestäubung [3]: 159,6
- Kornzahl der Rispe im Isolator [3]: 0,0
- Prozentsatz des Ansetzens von Samen bei freier Bestäubung [3]: 65,2%
- percent sterility at 6000 g/ha [3]: 100%
- Kornzahl der Ähre bei freier Bestäubung (diploidem Roggen Chulpan): 48,3
- Kornzahl der Ähre im Isolator (diploidem Roggen Chulpan): 0,0
- Prozentsatz des Ansetzens von Samen bei freier Bestäubung (diploidem Roggen Chulpan): 96,4%
- percent sterility at 10000 g/ha (diploidem Roggen Chulpan): 100%
- Kornzahl der Ähre bei freier Bestäubung [4]: 34,0
- Kornzahl der Ähre im Isolator [4]: 0,0
- Prozentsatz des Ansetzens von Samen bei freier Bestäubung [4]: 91,6%
- percent sterility at 6000 g/ha [4]: 100%

SMILES: BrCC(Br)CBr [Beispiel 4, 1,2,3-Tribrompropan]
- Kornzahl der Ähre bei freier Bestäubung [1, 5]: 34,1
- Kornzahl der Ähre im Isolator [1, 5]: 0,0
- Prozentsatz des Ansetzens von Samen bei freier Bestäubung [1, 5]: 89,3%
- pest or weed control at 6000 g/ha [1, 7]: 100%
- Kornzahl der Ähre bei freier Bestäubung [2, 6]: 34,8
- Kornzahl der Ähre im Isolator [2, 6]: 0,0
- Prozentsatz des Ansetzens von Samen bei freier Bestäubung [2, 6]: 93,3%
- pest or weed control at 1 %, 10000 g/ha [2]: 100%
- Kornzahl der Rispe bei freier Bestäubung [3]: 147,5
- Kornzahl der Rispe im Isolator [3]: 0,0
- Prozentsatz des Ansetzens von Samen bei freier Bestäubung [3]: 60,2%
- pest or weed control at 6000 g/ha [3]: 100%
- Kornzahl der Ähre bei freier Bestäubung (diploidem Roggen Chulpan): 45,0
- Kornzahl der Ähre im Isolator (diploidem Roggen Chulpan): 0,0
- Prozentsatz des Ansetzens von Samen bei freier Bestäubung (diploidem Roggen Chulpan): 89,8%
- pest or weed control at 10000 g/ha (diploidem Roggen Chulpan): 100%
- Kornzahl der Ähre bei freier Bestäubung [4]: 40,5
- Kornzahl der Ähre im Isolator [4]: 0,6
- Prozentsatz des Ansetzens von Samen bei freier Bestäubung [4]: 89,8%
- pest or weed control at 6000 g/ha [4]: 98.6%
